In PMC6651555, “Cathepsin L Inhibitors with Activity against the Liver Fluke Identified From a Focus Library of Quinoxaline 1,4-di-N-Oxide Derivatives” (Molecules, 2019):
Entries after “also recorded” stand apart in the source; their conditions may differ.

Key:
FhCL3 = FhCL3 inhibition screening, IC50 and slow-binding (fluorogenic substrate Tos-GPR-AMC); type: biochemical, Fasciola hepatica; conditions: 10 µM compound, 20 min preincubation, relative to enzyme alone; SD less than 10%
Protocol: (§1) Each compound was completely dissolved in dimethylsulfoxide (DMSO) to a concentration of 10 mM to prepare the stock solutions. To evaluate the inhibition of FhCL1 and FhCL3 by quinoxaline 1,4-di-N-oxide derivatives, nanomolar concentrations of each enzyme was incubated with compounds at 10 μM. Briefly, each enzyme and compound were preincubated 20 min in a 96-well plate in 0.1 M sodium phosphate buffer pH 6, 1 mM DTT, and 1 mM EDTA at room temperature. The reaction was initiated by adding 20 μM of substrate and enzyme activity was measured by the increase in aminomethyl coumarin (AMC) fluorescence as peptide substrates were hydrolyzed (Z-VLK-AMC for FhCL1 and Tos-GPR-AMC for FhCL3), at an excitation wavelength of 340 nm and emission wavelength of 440 nm using a spectrofluorometer (Varioskan Thermo, Waltham, MA, USA). Enzyme activity was expressed as RFU/s (relative fluorescence units of AMC released per second). Each compound was tested in triplicate. A control reaction without enzymes was performed to check for the occurrence of non-catalyzed reactions between substrates and inhibitors and a spectrum from 300 to 450 nm wavelength was done for each quinoxaline 1,4-di-N-oxide derivative to verify that none of them had optical activity in the measurement range. The percentage of enzyme inhibition was calculated as 100 − (vi/vo) × 100, where vi and vo correspond to the initial rate of AMC fluorescence increase (RFU/s) with and without inhibitor, respectively.
(§2) To calculate the IC50 values, compounds were incubated with each enzyme at seven different concentrations; 0.625, 1.25, 2.5, 5, 10, 20, and 40 μM. Then, the enzyme activity was measured in a 96-well plate as described before. We plotted initial rates (RFU/s) versus log10 of inhibitor concentrations and obtained the IC50 values by fitting the data to a sigmoid curve. We also carried out slow-binding assays to evaluate the time-dependence of the inhibition. Each compound was incubated at 10 μM with the enzyme for increasing lengths of time; 3 to 120 min and the percentage of inhibition at each time point was determined as described before. We calculated the inhibition percentage of the leader compounds at 10 μM for HsCL1. The enzyme was preincubated for 20 min with the compounds and the activity was measured in a 96-well plate in 400 mM sodium acetate, pH 5.5, with 4 mM EDTA, 8 mM DTT, and 20 μM of substrate Z-VLK-AMC. The percentage of enzyme inhibition was calculated as described for FhCL1 and FhCL3. We determined the IC50 value for C17 against HsCL by incubating the enzyme with four different concentrations of the compound 0, 10, 25, and 50 μM and measuring the activity as described before. We plotted initial rates (RFU/s) versus log10 of inhibitor concentration and obtained the IC50 value by fitting the data to a sigmoid curve.

FhCL1 = biological target: T1, FhCL1 (Fasciola hepatica, UniProt Q7JNQ9); test: FhCL1 inhibition screening, IC50 and slow-binding (fluorogenic substrate Z-VLK-AMC); type: biochemical; conditions: read-out: %Inh FhCL1, 10 µM compound, 20 min preincubation, relative to enzyme alone; SD less than 10%
T1 construct: made in house; host or cells: Hansenula polymorpha (yeast)
T1 sequence (Q7JNQ9 entry or part of it): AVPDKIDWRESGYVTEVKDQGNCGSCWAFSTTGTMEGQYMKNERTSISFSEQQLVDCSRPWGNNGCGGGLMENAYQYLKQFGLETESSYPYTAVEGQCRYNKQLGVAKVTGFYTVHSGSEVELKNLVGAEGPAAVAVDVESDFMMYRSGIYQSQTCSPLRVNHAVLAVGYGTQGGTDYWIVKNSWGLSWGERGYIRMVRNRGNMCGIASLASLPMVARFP
Protocol: as §1, §2

F. hepatica NEJ = test: In vitro culture of NEJ and treatment with inhibitors (motility score); type: cell-based, Fasciola hepatica; conditions: 50 μM compound, over 96 h
Protocol: F. hepatica metacercariae were acquired from Instituto Miguel C. Rubino (DILAVE, MGAP, Uruguay). NEJ were obtained by in vitro excystement as previously described with minor modifications. Briefly, metacercariae were incubated with 1% sodium hypochlorite for 5 min at room temperature to remove the outer cyst wall and then washed several times with PBS. Metacercariae activation was carried out in a medium prepared by mixing equal volumes of solution A (0.4% sodium taurocholate, 120 mM NaHCO3, 140 mM NaCl, pH 8.0) and solution B (50 mM HCl and 33 mM L-cysteine), and incubating at 39 °C until the NEJ begin to emerge (around 3–4 h). A 100 μm filter was used to retain the cyst wall. Collected NEJ were washed three times with RPMI-1640 supplemented with 200 U/mL Penicillin G sulfate, […] streptomycin sulfate, 500 ng/mL amphotericin B, 10 mM HEPES, counted and divided into groups of around 20 parasites that were transferred to 96 wells in tissue culture plates. Parasites were maintained at 37 °C, 5% CO2 in modified Basch’s medium. At day 1, each tested compound was added at a concentration of 50 μM in 0.5% DMSO. Also, 0.5% of DMSO was added to the control groups. Each condition was tested in duplicate. NEJ behavior was monitored under a light microscope (Olympus BX41, Hamburg, Germany), every day each well was recorded for a minute in order to assess parasite motility and registered using the following score: 3—normally active; 2—reduced activity (sporadic movement); 1—immotile (dead, adapted from). Control parasites were maintained in culture for seven days.

bovine spermatozoa = test: Cytotoxicity assay with bovine spermatozoa (CASA motility); type: cell-based; conditions: 50 µM, 1 h at 37 °C, relative to control sperm incubated with vehicle
Protocol: (§3) Cytotoxicity studies on the HepG2 cell line. Cells: 1.5 × 10^4 cells per 96-well plate were cultured in 225 µL of DMEM medium, supplemented with L-glutamine (1%), penicillin/streptomycin (1%), and 10% (v/v) fetal bovine serum (FBS). The cultures were maintained at 37 °C and 5% CO2 for 48 h. Treatment: Compound solutions were prepared just before dosing. Stock solutions, […], were prepared in 100% DMSO (Aldrich, Saint Louis, MO, USA) and 25 µL of adequate dilution was added to each well 24 h after plating the cells. For each compound, a dose-response curve was done with five different compound concentrations: 6.25, 12.5, 25, 50, and 100 µM (treated cells, T). No effect on cell growth was observed by the presence of 0.5% DMSO in the culture media (control cells, C). Cells were incubated with the compounds for 24 h at 37 °C in 5% CO2 atmosphere, then the medium was discarded and the cells were washed with PBS. The cells were then fixed with 50 µL of TCA (50%) and 200 µL of culture medium (without FBS) for 1 h at 4 °C. Then the cells were washed with purified water and treated with Sulforhodamin B (0.4% wt/vol in 1% acetic acid) for 10 min at room temperature. The plates were then washed with 1% acetic acid and dried overnight. Finally, 100 µL of Tris buffer (pH = 10.0) was added and absorbance read at 540 nm. Data calculations: The assays were done in four replicates. At the end of the experiment, the cell survival percentage (SP) was calculated for each compound as (T/C) × 100. To determine the IC50, the SP of cells at each compound concentration was plotted and the data were fitted to a sigmoid curve. The standard error was not greater than 10% for any condition. For the cytotoxicity assay with bovine spermatozoa, semen samples were obtained from a healthy fertile Hereford bull and kept frozen in 0.5 mL straws (extended in Andromed, Minitube, Tiefenbach, Germany) under liquid nitrogen until use. The semen used belonged to a single freezing batch that was obtained during a regular collection schedule with an artificial vagina. Samples from three straws were thawed and a sperm pool was prepared in PBS at a concentration of 80 million spermatozoa per ml. Then, 50 μL of this pool was carefully mixed with 50 μL of each compound to be tested at a concentration of 50 µM or 1% DMSO in control experiments. Each compound was assayed in triplicate in 96-well plates and controls were assayed in triplicate. Plates were incubated at 37 °C for 1 h with moderate shaking. The motility analysis was carried out using a CASA (Computer Assisted Semen Analyzer) system Androvision (Minitube, Tiefenbach, Germany) with an Olympus BX 41 microscope (Olympus, Japan) equipped with a warm-stage at 37 °C. Each sample (10 μL) was placed onto a Makler Counting Chamber (depth 10 μm, Sefi-Medical Instruments, Haifa, Israel) and the following parameters were evaluated: percentage of total motile spermatozoa (motility >5 μm/s) and velocity curved line (VCL > 24 μm/s). At least 400 spermatozoa were analyzed from each sample from at least four microscope fields.

HepG2 cell line = test: Cytotoxicity on the HepG2 cell line (Sulforhodamin B); type: cell-based; conditions: Homo sapiens, 24 h incubation with compound
Protocol: as §3

Row | Compound | %Inh FhCL3 (FhCL3) [%] | inhibition at 10 µM (FhCL1) [%] | Effect on NEJ motility / fasciolicide activity in vitro (F. hepatica NEJ) | Sperm Motility RTC (relative to control) (bovine spermatozoa) | IC50 (HepG2 cell line) [µM]
1 | Cc1c[n+]([O-])c2ccccc2[n+]1[O-] [Compound C1] | 8 | 1 | – | – | –
2 | O=Cc1c[n+]([O-])c2ccccc2[n+]1[O-] [Compound C2] | 0 | 21 | – | – | –
3 | N#Cc1c(N)[n+]([O-])c2ccccc2[n+]1[O-] [Compound C3] | 0 | 30 | – | – | –
4 | COC(=O)N/N=C/c1ccc2c(c1)[n+]([O-])c(C#N)c(N)[n+]2[O-] [Compound C4] | 27 | 0 | – | – | –
5 | C=CCNC(=S)N/N=C/c1ccc2c(c1)[n+]([O-])c(C#N)c(N)[n+]2[O-] [Compound C5] | 39 | 20 | – | – | –
6 | CCCCNC(=O)N/N=C/c1ccc2c(c1)[n+]([O-])c(C#N)c(N)[n+]2[O-] [Compound C6] | 27 | 59 | did not have activity against the parasites | – | –
7 | CCN(C/C=C/c1ccccc1)c1ccc2c(c1)[n+]([O-])c(C#N)c(N)[n+]2[O-] [Compound C8] | 45 | 24 | – | – | –
8 | N#Cc1c(N)[n+]([O-])c2cc(Cl)c(Cl)cc2[n+]1[O-] [Compound C9] | 0 | 15 | – | – | –
9 | COC(=O)N/N=C/c1ccc2c(c1)[n+]([O-])c(C)c(C)[n+]2[O-] [Compound C10] | 3 | 13 | – | – | –
10 | Cc1c(C)[n+]([O-])c2cc(/C=N/NC(=O)NCCc3ccccc3)ccc2[n+]1[O-] [Compound C11] | 32 | 56 | did not have activity against the parasites | – | –
11 | C=CCN1C(=O)CS/C1=N/N=C/c1ccc2c(c1)[n+]([O-])c(C)c(C)[n+]2[O-] [Compound C12] | 22 | 0 | – | – | –
12 | C=CCn1c(-c2ccc(Cl)cc2)csc1=NN=Cc1ccc2c(c1)[n+]([O-])c(C)c(C)[n+]2[O-] [Compound C13] | 2 | 34 | – | – | –
13 | CCOC(=O)c1c(C)[n+]([O-])c2ccccc2[n+]1[O-] [Compound C14] | 5 | 28 | – | – | –
14 | C=CCNC(=S)N/N=C/c1ccc2c(c1)[n+]([O-])c(C(=O)OCC)c(C)[n+]2[O-] [Compound C15] | 58 | 38 | did not have activity against the parasites | – | –
15 | Cc1c(Sc2ccccc2)[n+]([O-])c2cc(Cl)c(Cl)cc2[n+]1[O-] [Compound C16] | 22 | 35 | – | – | –
16 | CCOC(=O)c1c(-c2ccccc2)[n+]([O-])c2cc(Cl)c(Cl)cc2[n+]1[O-] [Compound C19] | 35 | 54 | progressive decrease of parasite motility starting between 24 and 96 h of culture; also recorded: strong fasciolicide activity in vitro | – | –
17 | C=CCNC(=S)N/N=C/c1ccc2c(c1)[n+]([O-])c(C(=O)Nc1ccccc1)c(C)[n+]2[O-] [Compound C20] | 0 | 72 | – | – | –
18 | CCN(C/C=C/c1ccccc1)c1ccc2c(c1)[n+]([O-])c(C(=O)Nc1ccccc1)c(C)[n+]2[O-] [Compound C21] | 54 | 47 | progressive decrease of parasite motility starting between 24 and 96 h of culture | – | –
19 | Cc1c(C(=O)Nc2ccccc2)[n+]([O-])c2cc(CN3CCN(C/C=C/c4ccccc4)CC3)ccc2[n+]1[O-] [Compound C22] | 49 | 23 | – | – | –
20 | C=CCN1C(=O)CS/C1=N/N=C/c1ccc2c(c1)[n+]([O-])c(-c1ccccc1)c(C(=O)Nc1ccccc1)[n+]2[O-] [Compound C24] | – | ≥ 80 | progressive decrease of parasite motility starting between 24 and 96 h of culture; also recorded: strong fasciolicide activity in vitro | 82 ± 1 | 16 ± 0.1
21 | Cc1c(C(=O)NCc2ccccc2)[n+]([O-])c2ccccc2[n+]1[O-] [Compound C25] | 40 | 47 | – | – | –
22 | Cc1c(C(=O)c2ccccc2)[n+]([O-])c2cc(F)c(F)cc2[n+]1[O-] [Compound C26] | 17 | 41 | – | – | –
23 | O=C(c1ccccc1)c1c(C(F)(F)F)[n+]([O-])c2ccccc2[n+]1[O-] [Compound C27] | 22 | 38 | – | – | –
24 | O=C(c1ccccc1)c1c(C(F)(F)F)[n+]([O-])c2cc(F)c(F)cc2[n+]1[O-] [Compound C28] | 38 | 0 | – | – | –
25 | CSc1nc2cc(Cl)c(Oc3cccc(Cl)c3Cl)cc2[nH]1 [TCBZ, triclabendazole, reference compound] | – | – | – | 88 ± 1 | 32 ± 0.2
